Earlier results, collected in patent publication US10188628B1, “Release composition for derivatives of Cannabaceae” (priority 2016, dated 2019).

What was measured:
[1] = after oral administration
[2] = not given; remark: listed apart in the source

CCCCCc1cc(O)c2c(c1)OC(C)(C)[C@@H]1CCC(C)=C[C@@H]21 [Dronabinol, Δ^9-tetrahydrocannabinol]
appetite stimulant effect may continue [1]: ≥ 24 h
duration of action for psychoactive effects [1]: 4 to 6 h
onset of action [1]: 0.5 to 1 h
peak effect [1]: 2 to 4 h
stability to storage and stress conditions (heat, light): thermolabile and photolabile
biopharmaceutical classification system (BCS) class (low aqueous solubility and high permeability): Class II
absorbed ([2]; after a single oral dose): 90-95%
maximal plasma levels ([2]; oral dosing of 20 mg in a sesame oil formulation): around 10 ng/ml
administered dose reaching systemic circulation ([2]; oral, first pass hepatic metabolism and high lipid solubility): 10-20%
